Results as given in patent US20110105496A1, “Methods For The Treatment Of Myosin Heavy Chain-Mediated Conditions Using 4,7-Dihydrothieno[2,3-B]Pyridine Compounds” (priority 2005, published 2011).
Where two headings read alike, the source gives them in different places.

Tested on: alpha-MyHC
Assay: alpha-MyHC cytoblot process in neonatal rat ventricular myocytes (NRVM)
Assay type: cell-based
Method: In vitro activity of each compound is measured using the alpha-MyHC cytoblot process. Briefly, neonatal rat ventricular myocytes (NRVM) at 120,000 cells/ml in HyQ DME/High modified culture media supplemented with 10% charcoal/dextran treated FBS, 0.1% Nutridoma-SP, 1:100 MEM non-essential amino acids, 1:50 MEM amino acids solution w/o L-Gln, 1 mM sodium pyruvate and 1:100 P/S/G, are plated on gelatin coated sterile 384-well plates (Costar 3712) at 6,000 cells per well. Cells are incubated overnight at 37° C. in 5% CO2 100% humidity. Following overnight growth the media is changed to HyQ DME/High modified culture media supplemented with 0.3% Nutridoma-SP, 1:100 MEM non-essential amino acids, 1:50 MEM amino acids solution w/o L-Gln, 1 mM sodium pyruvate and 1:100 P/S/G. Cells are then dosed with serial dilutions of each compound in DMSO. Each concentration in the dose range is dosed in quadruplicate. Dosing is done in such a way so that the final DMSO concentration was 0.44%. Compound dilutions are 3-fold with the final top concentration of 10 uM. […] Following dosing, the cells are incubated for 72 hours at 37° C. in 5% CO2 100% humidity and then processed with the cytoblot method. Briefly, cell media is aspirated and cell monolayers washed with PBS and fixed with 100% methanol for 30 minutes. Fixed cells are then blocked with PBS, 0.05% Tween-20, 1% BSA, for 1 hour. Following blocking, cells are incubated with primary alpha-MyHC-specific antibody antibody (1:30 dilution of BA-G5 hybridoma conditioned media, ATCC HB276) for 1 hour. Following incubation with the primary antibody, cells are washed with PBS, 0.05% Tween-20, 1% BSA and incubated with secondary antibody (1:1000 dilution, goat-anti-mouse HRP, Southern Biotech, 1031-05) for 1 hour. Following incubation with the secondary antibody, wells are washed and incubated in SuperSignal, West Dura HRP-luminescence substrate for 30 seconds under shaking at room temperature. Luminescence is measured using a Packard Fusion plate reader. […] RLU values are converted into per cent fraction of low control and dose responses are fitted to a sigmoidal 4-parameter equation (XLFit, IDBS) where the EC50 and Max Plateau values were extracted. […] Max Plateau is the […] maximum value determined by the dose response fit.

[1] = Table 2 (esters), NRVM, 72 hours, alpha-MyHC cytoblot
[2] = Table 2 (esters), NRVM, 72 hours, maximum of dose response fit
[3] = Table 3 (amides), NRVM, 72 hours, alpha-MyHC cytoblot
[4] = Table 3 (amides), NRVM, 72 hours, maximum of dose response fit
[5] = Table 1, NRVM, 72 hours, alpha-MyHC cytoblot, mean ± spread
[6] = Table 1, NRVM, 72 hours, maximum of dose response fit, low control = vehicle only

Structure (SMILES) | Max Plateau [2] | EC50 [5] [nM] | Max Plateau [6] | other results
CCC(=O)C1=C(CC)Nc2sc(C(=O)c3ccc(Cl)c(Cl)c3)c(N)c2C1c1ccccc1F (racemic) [Compound 39, 1-[3-amino-2-(3,4-dichloro-benzoyl)-6-ethyl-4-(2-fluoro-phenyl)-4,7-dihydro-thieno[2,3b]pyridin-5-yl]-propan-1-one] |  |  |  | EC50 (Rattus norvegicus, Ventricular myocyte, Table 1, NRVM, 72 hours, alpha-MyHC cytoblot, mean ± spread): 17.1 nM; Emax (Rattus norvegicus, Ventricular myocyte, Table 1, NRVM, 72 hours, maximum of dose response fit, low control = vehicle only, read-out: Max Plateau): 273 ± 37.3%
CCC1=C(C(=O)OC)C(c2ccnc(F)c2)c2c(sc(C(=O)c3cccc(Cl)c3)c2N)N1 (racemic) [Compound 175] | 289.91 per cent fraction of low control |  |  | EC50 [1]: 0.183 nM
COC(=O)C1=C(C2CC2)Nc2sc(C(=O)c3cccc(Cl)c3)c(N)c2C1c1ccnc(F)c1 (racemic) [Compound 176] | 218.25 per cent fraction of low control |  |  | EC50 [1]: 42.1 nM
COC(=O)C1=C(C(C)C)Nc2sc(C(=O)c3cccc(C#N)c3)c(N)c2C1c1ccccc1F (racemic) [Compound 177] | 162.75 per cent fraction of low control |  |  | EC50 [1]: 796 nM
CCC1=C(C(=O)OCCOC)C(c2ccccc2F)c2c(sc(C(=O)c3cccc(C#N)c3)c2N)N1 (racemic) [Compound 178] | 258.67 ± 45.31 per cent fraction of low control |  |  | 
CCC1=C(C(=O)OCCOC)C(c2ccnc(F)c2)c2c(sc(C(=O)c3cccc(C#N)c3)c2N)N1 (racemic) [Compound 192] | 237.07 ± 13.03 per cent fraction of low control |  |  | 
CCOC(=O)C1=C(CC)Nc2sc(C(=O)c3ccc(F)c(CC(=O)OC)c3)c(N)c2C1c1ccccc1 (racemic) [Compound 194] | 188.67 per cent fraction of low control |  |  | EC50 [1]: 247 nM
CCNC(=O)C1=C(C)Nc2sc(C(=O)c3ccc(Cl)c(Cl)c3)c(N)c2C1c1ccccc1 (racemic) [Compound 195] |  |  |  | EC50 [3]: 337000 nM; Max Plateau [4]: 126.67 ± 23.09 per cent fraction of low control
CCCCNC(=O)C1=C(C)Nc2sc(C(=O)c3ccc(Cl)c(Cl)c3)c(N)c2C1c1ccccc1 (racemic) [Compound 196] |  |  |  | EC50 [3]: 334000 nM; Max Plateau [4]: 121.93 ± 25.12 per cent fraction of low control
COCCOCN1C(C)=C(C(C)=O)C(c2ccccc2)c2c1sc(C(=O)c1ccccc1)c2N (racemic) [Compound 209] |  |  |  | EC50 (Table 5 (R^4 substituted), NRVM, 72 hours, alpha-MyHC cytoblot): 393 nM; Max Plateau (Table 5 (R^4 substituted), NRVM, 72 hours, maximum of dose response fit): 192.74 per cent fraction of low control
CC1=C(C(=O)OCCN)C(c2ccccc2)c2c(sc(C(=O)c3ccc(Cl)c(Cl)c3)c2N)N1 (racemic) [compound 213] |  |  |  | EC50: 326 nM; Max Plateau: 208.56 ± 23.45
CCC1=C(C(=O)OC(C)CC)C(c2ccccc2F)c2c(sc(C(=O)c3ccc(Cl)c(Cl)c3)c2N)N1 (single isomer, unassigned) [Compound 162] | 183.22 per cent fraction of low control |  |  | EC50 [1]: 197 nM
CCC1=C(C(=O)OC(C)CC)C(c2ccccc2F)c2c(sc(C(=O)c3ccc(Cl)c(Cl)c3)c2N)N1 (single isomer, unassigned) [Compound 163] | 224.85 per cent fraction of low control |  |  | EC50 [1]: 142 nM
CCC1=C(C(=O)OC(C)CC)C(c2ccccc2F)c2c(sc(C(=O)c3cccc(C#N)c3)c2N)N1 (single isomer, unassigned) [Compound 165] | 250.83 per cent fraction of low control |  |  | EC50 [1]: 12 nM
CCC1=C(C(=O)OC(C)CC)C(c2ccccc2F)c2c(sc(C(=O)c3cccc(C#N)c3)c2N)N1 (single isomer, unassigned) [Compound 166] | 219.07 per cent fraction of low control |  |  | EC50 [1]: 33.3 nM
CCC1=C(C(=O)OCCOC)C(c2ccccc2F)c2c(sc(C(=O)c3cccc(Cl)c3)c2N)N1 (single isomer, unassigned) [Compound 179] | 237.11 ± 19.59 per cent fraction of low control |  |  | 
CCC1=C(C(=O)OCCOC)C(c2ccnc(F)c2)c2c(sc(C(=O)c3cccc(Cl)c3)c2N)N1 (single isomer, unassigned) [Compound 183] | 284.35 ± 38.37 per cent fraction of low control |  |  | 
CCC1=C(C(=O)OCCOC)C(c2ccccc2F)c2c(sc(C(=O)c3cccc(Cl)c3)c2N)N1 (single isomer, unassigned) [Compound 187] | 162.93 ± 10.10 per cent fraction of low control |  |  | 
CCC1=C(C(=O)OCCOC)C(c2ccnc(F)c2)c2c(sc(C(=O)c3cccc(Cl)c3)c2N)N1 (single isomer, unassigned) [Compound 191] | 263.67 ± 1.13 per cent fraction of low control |  |  | 
CC(=O)C1=C(C)Nc2sc(C(=O)c3ccc(Cl)c(Cl)c3)c(N)c2C1c1ccccc1 (stereo not drawn) [Compound 2] |  | 177 | 207.74 ± 23.00 per cent fraction of low control | 

Structure (SMILES) | Max Plateau [2] | EC50 [5] [nM] | Max Plateau [6] | other results
CC(=O)C1=C(C)Nc2sc(C(=O)c3ccccc3)c(N)c2C1c1ccccc1 (stereo not drawn) [Compound 3] |  | 797 | 250.88 ± 32.62 per cent fraction of low control | 
CC(=O)C1=C(C)Nc2sc(C(=O)c3cccc([N+](=O)[O-])c3)c(N)c2C1c1ccccc1Cl (stereo not drawn) [Compound 4, 1-[3-amino-4-(2-chloro-phenyl)-6-methyl-2-(3-nitro-benzoyl)-4,7dihydro-thieno[2,3-b]pyridin-5-yl]-ethanone] |  |  | 244.20 ± 37.25 per cent fraction of low control | 
CC(=O)C1=C(C)Nc2sc(C(=O)c3cccnc3)c(N)c2C1c1ccccc1 (stereo not drawn) [Compound 5] |  | 2330 | 286.43 ± 42.04 per cent fraction of low control | 
CC(=O)C1=C(C)Nc2sc(C(=O)c3cccc(Br)c3)c(N)c2C1c1ccccc1 (stereo not drawn) [Compound 6] |  | 48.9 | 289.34 ± 70.69 per cent fraction of low control | 
CC(=O)C1=C(C)Nc2sc(C(=O)c3ccc(C)c(C)c3)c(N)c2C1c1ccccc1 (stereo not drawn) [Compound 8] |  | 797 | 172.29 ± 9.66 per cent fraction of low control | 
CC(=O)C1=C(C)Nc2sc(C(=O)c3cccc([N+](=O)[O-])c3)c(N)c2C1c1ccc(C(=O)O)cc1 (stereo not drawn) [Compound 9] |  |  | 100.00 ± 0.00 per cent fraction of low control | 
CC(=O)C1=C(C)Nc2sc(C(=O)c3ccncc3)c(N)c2C1c1ccccc1 (stereo not drawn) [Compound 10] |  | 2680 | 210.00 ± 36.06 per cent fraction of low control | 
CC(=O)C1=C(C)Nc2sc(C(=O)c3ccc(Cl)c(Cl)c3)c(N)c2C1c1ccccc1Cl (stereo not drawn) [Compound 13] |  | 82.5 |  | 
COc1ccc(C2C(C(C)=O)=C(C)Nc3sc(C(=O)c4ccccc4)c(N)c32)cc1 (stereo not drawn) [Compound 14] |  | 3030 | 182.73 ± 26.95 per cent fraction of low control | 
COc1cccc(C2C(C(C)=O)=C(C)Nc3sc(C(=O)c4ccccc4)c(N)c32)c1 (stereo not drawn) [Compound 15] |  |  | 126.50 ± 24.27 per cent fraction of low control | 
CC(=O)C1=C(C)Nc2sc(C(=O)c3ccccn3)c(N)c2C1c1ccccc1 (stereo not drawn) [Compound 16] |  | 4290 | 163.33 ± 32.15 per cent fraction of low control | 
COc1ccccc1C1C(C(C)=O)=C(C)Nc2sc(C(=O)c3ccccc3)c(N)c21 (stereo not drawn) [Compound 18] |  | 876 | 215.25 ± 44.08 per cent fraction of low control | 
CC(=O)C1=C(C)Nc2sc(C(=O)c3ccccc3)c(N)c2C1c1ccncc1 (stereo not drawn) [Compound 19] |  | 3390 | 260.00 ± 36.06 per cent fraction of low control | 
CC(=O)C1=C(C)Nc2sc(C(=O)c3ccccc3)c(N)c2C1c1cccnc1 (stereo not drawn) [Compound 20] |  |  | 127.35 ± 23.71 per cent fraction of low control | 
CC(=O)C1=C(C)Nc2sc(C(=O)c3ccccc3)c(N)c2C1c1ccc(Cl)cc1 (stereo not drawn) [Compound 21] |  | 583 | 193.20 ± 49.26 per cent fraction of low control | 
CC(=O)C1=C(C)Nc2sc(C(=O)c3ccc(Cl)c(Cl)c3)c(N)c2C1c1ccc(Br)cc1 (stereo not drawn) [Compound 22] |  | 2070 | 174.35 ± 23.39 per cent fraction of low control | 
CC(=O)C1=C(C)Nc2sc(C(=O)c3ccc(Cl)c(Cl)c3)c(N)c2C1c1ccc(O)cc1 (stereo not drawn) [Compound 23] |  | 339 | 277.53 ± 33.46 per cent fraction of low control | 
CC(=O)C1=C(C)Nc2sc(C(=O)c3ccccc3)c(N)c2C1c1ccccc1F (stereo not drawn) [Compound 24] |  | 273 | 260.35 ± 43.53 per cent fraction of low control | 
CC(=O)C1=C(C)Nc2sc(C(=O)c3ccc(Cl)c(Cl)c3)c(N)c2C1c1ccc(CNC(=O)OC(C)(C)C)cc1 (stereo not drawn) [Compound 25] |  |  | 100.00 ± 0.00 per cent fraction of low control | 
